Experimental data published in ChEMBL document CHEMBL5550152, “Design, synthesis and evaluation of novel prostate-specific membrane antigen-targeted aryl [18F]fluorosulfate PET tracers” (Bioorg Med Chem, 2024).

Key:
[1] = Drug distribution in nude mouse large intestine xenografted with human 22Rv1 cells at 8.1 MBq,iv measured after 2 hrs; format: ADME, tissue-based, CWR22R; details: in vivo
[2] = Drug distribution in nude mouse large intestine xenografted with human 22Rv1 cells at 8.1 MBq,iv measured after 4 hrs; format: ADME, tissue-based, CWR22R; details: in vivo
[3] = Drug distribution in nude mouse gall bladder xenografted with human 22Rv1 cells at 8.1 MBq,iv measured after 1 hr; format: ADME, tissue-based, CWR22R; details: in vivo
[4] = Drug distribution in nude mouse muscle tissue xenografted with human 22Rv1 cells at 8.1 MBq,iv measured after 2 hrs in presence of 2-PMPA; format: ADME, tissue-based, CWR22R; details: in vivo
[5] = Drug distribution in nude mouse spleen xenografted with human 22Rv1 cells at 8.1 MBq,iv measured after 2 hrs in presence of 2-PMPA; format: ADME, tissue-based, CWR22R; details: in vivo
[6] = Drug distribution in nude mouse liver xenografted with human 22Rv1 cells at 8.1 MBq,iv measured after 1 hr; format: ADME, tissue-based, CWR22R; details: in vivo
[7] = Drug distribution in nude mouse small intestine xenografted with human 22Rv1 cells at 8.1 MBq,iv measured after 2 hrs; format: ADME, tissue-based, CWR22R; details: in vivo
[8] = Drug distribution in nude mouse lung xenografted with human 22Rv1 cells at 8.1 MBq,iv measured after 4 hrs; format: ADME, tissue-based, CWR22R; details: in vivo
[9] = Drug distribution in nude mouse liver xenografted with human 22Rv1 cells at 8.1 MBq,iv measured after 4 hrs; format: ADME, tissue-based, CWR22R; details: in vivo
[10] = Drug distribution in nude mouse spleen xenografted with human 22Rv1 cells at 8.1 MBq,iv measured after 1 hr; format: ADME, tissue-based, CWR22R; details: in vivo
[11] = Drug distribution in nude mouse brain xenografted with human 22Rv1 cells at 8.1 MBq,iv measured after 2 hrs; format: ADME, tissue-based, CWR22R; details: in vivo
[12] = Drug uptake in human 22Rv1 cells at 3.7 10^-2MBq pretreated with 2-PMPA for 30 mins followed by compound addition and measured after 4 hr relative to control; format: ADME, cell-based; details: cwr22r
[13] = Drug distribution in nude mouse brain xenografted with human 22Rv1 cells at 8.1 MBq,iv measured after 2 hrs in presence of 2-PMPA; format: ADME, tissue-based, CWR22R; details: in vivo
[14] = Drug distribution in nude mouse stomach xenografted with human 22Rv1 cells at 8.1 MBq,iv measured after 1 hr; format: ADME, tissue-based, CWR22R; details: in vivo
[15] = Drug distribution in nude mouse brain xenografted with human 22Rv1 cells at 8.1 MBq,iv measured after 4 hrs; format: ADME, tissue-based, CWR22R; details: in vivo
[16] = Drug distribution in nude mouse spleen xenografted with human 22Rv1 cells at 8.1 MBq,iv measured after 2 hrs; format: ADME, tissue-based, CWR22R; details: in vivo
[17] = Drug uptake in human 22Rv1 cells at 3.7 10^-2MBq measured after 4 hrs relative to control; format: ADME, cell-based; details: cwr22r
[18] = Drug distribution in nude mouse bone xenografted with human 22Rv1 cells at 8.1 MBq,iv measured after 2 hrs; format: ADME, tissue-based, Bone element, CWR22R; details: in vivo
[19] = Drug distribution in nude mouse gall bladder xenografted with human 22Rv1 cells at 8.1 MBq,iv measured after 2 hrs; format: ADME, tissue-based, CWR22R; details: in vivo
[20] = Drug distribution in nude mouse lung xenografted with human 22Rv1 cells at 8.1 MBq,iv measured after 2 hrs in presence of 2-PMPA; format: ADME, tissue-based, CWR22R; details: in vivo
[21] = Drug distribution in nude mouse tumor xenografted with human 22Rv1 cells at 8.1 MBq,iv measured after 4 hrs; format: ADME, tissue-based, Neoplasm, CWR22R; details: in vivo
[22] = Drug distribution in nude mouse muscle tissue xenografted with human 22Rv1 cells at 8.1 MBq,iv measured after 1 hr; format: ADME, tissue-based, CWR22R; details: in vivo
[23] = Drug distribution in nude mouse liver xenografted with human 22Rv1 cells at 8.1 MBq,iv measured after 2 hrs in presence of 2-PMPA; format: ADME, tissue-based, CWR22R; details: in vivo
[24] = Drug distribution in nude mouse lung xenografted with human 22Rv1 cells at 8.1 MBq,iv measured after 1 hr; format: ADME, tissue-based, CWR22R; details: in vivo
[25] = Drug distribution in nude mouse liver xenografted with human 22Rv1 cells at 8.1 MBq,iv measured after 2 hrs; format: ADME, tissue-based, CWR22R; details: in vivo
[26] = Stability in mouse plasma measured after 4 hrs by radio-HPLC analysis; format: ADME, cell-free
[27] = Drug uptake in mouse tumor xenografted with human 22Rv1 cells at 7.4 MBq, iv measured after 2 hrs by PET imaging analysis relative to control; format: ADME, organism-based, Neoplasm, CWR22R; details: in vivo
[28] = Drug distribution in nude mouse bone xenografted with human 22Rv1 cells at 8.1 MBq,iv measured after 2 hrs in presence of 2-PMPA; format: ADME, tissue-based, Bone element, CWR22R; details: in vivo
[29] = Drug distribution in nude mouse tumor xenografted with human 22Rv1 cells at 8.1 MBq,iv measured after 2 hrs in presence of 2-PMPA; format: ADME, tissue-based, Neoplasm, CWR22R; details: in vivo
[30] = Drug uptake in mouse tumor xenografted with human 22Rv1 cells at 7.4 MBq, iv pretreated with 2-PMPA measured after 2 hrs by PET imaging analysis relative to control; format: ADME, organism-based, Neoplasm, CWR22R; details: in vivo
[31] = Drug distribution in nude mouse brain xenografted with human 22Rv1 cells at 8.1 MBq,iv measured after 1 hr; format: ADME, tissue-based, CWR22R; details: in vivo
[32] = Drug distribution in nude mouse kidney xenografted with human 22Rv1 cells at 8.1 MBq,iv measured after 4 hrs; format: ADME, tissue-based, CWR22R; details: in vivo

Which results are given for `COc1cc(C(=O)N[C@@H](CCC(=O)O)C(=O)N[C@@H](CCC(=O)O)C(=O)NCc2ccc(C(=O)N[C@@H](Cc3ccc4ccccc4c3)C(=O)NCCCC[C@H](NC(=O)N[C@@H](CCC(=O)O)C(=O)O)C(=O)O)cc2)ccc1OS(=O)(=O)[18F]`?
Drug uptake [1]: 2.77 % ID/g; Drug uptake [2]: 1.34 % ID/g; Drug uptake [3]: 3.69 % ID/g; Drug uptake [4]: 0.46 % ID/g; Drug uptake [5]: 0.83 % ID/g; Drug uptake [6]: 4.61 % ID/g; Drug uptake [7]: 1.91 % ID/g; Drug uptake [8]: 0.52 % ID/g; Drug uptake [9]: 0.79 % ID/g; Drug uptake [10]: 1.85 % ID/g; Drug uptake [11]: 0.1 % ID/g; Drug uptake [12]: 0.26%; Drug uptake [13]: 0.08 % ID/g; Drug uptake [14]: 1.75 % ID/g; Drug uptake [15]: 0.02 % ID/g; Drug uptake [16]: 1.23 % ID/g; Drug uptake [17]: 1.19%; Drug uptake [18]: 3.79 % ID/g; Drug uptake [19]: 6.05 % ID/g; Drug uptake [20]: 1.58 % ID/g; Drug uptake [21]: 4.47 % ID/g; Drug uptake [22]: 1.32 % ID/g; Drug uptake [23]: 2.4 % ID/g; Drug uptake [24]: 3.18 % ID/g; Drug uptake [25]: 1.79 % ID/g; Stability [26]: Stable; Drug uptake [27]: 2.85 % ID/g; Drug uptake [28]: 2.49 % ID/g; Drug uptake [29]: 1.82 % ID/g; Drug uptake [30]: 1.37 % ID/g; Drug uptake [31]: 0.15 % ID/g; Drug uptake [32]: 19.91 % ID/g
